ChEMBL document CHEMBL3797052 (Eur J Med Chem, 2016)
pIC50: −log10 of the molar value.

Columns and labels:
[1] = Antiproliferative activity against human HCT15 cells assessed as cell growth at 10^-5 M after 48 hrs by sulforhodamine B assay; assay type: functional; details: HCT-15, 48 h, read-out: Activity
[2] = test system: KM12; assay: Antiproliferative activity against human KM12 cells assessed as cell growth at 10^-5 M after 48 hrs by sulforhodamine B assay; assay type: functional; details: KM12, 48 h, read-out: Activity
[3] = Antiproliferative activity against human Hs 578T cells assessed as cell growth at 10^-5 M after 48 hrs by sulforhodamine B assay; assay type: functional; details: read-out: Activity
[4] = Antiproliferative activity against human DU145 cells assessed as cell growth at 10^-8 M after 48 hrs by sulforhodamine B assay; assay type: functional; details: DU-145, 48 h, read-out: Activity
[5] = test system: SK-MEL-2; assay: Antiproliferative activity against human SK-MEL-2 cells assessed as cell growth at 10^-5 M after 48 hrs by sulforhodamine B assay; assay type: functional; details: SK-MEL-2, 48 h, read-out: Activity
[6] = test system: MDA-MB-231; assay: Antiproliferative activity against human MDA-MB-231 cells assessed as cell growth at 10^-5 M after 48 hrs by sulforhodamine B assay; assay type: functional; details: MDA-MB-231, 48 h, read-out: Activity
[7] = Antiproliferative activity against human NCI-ADR-RES cells assessed as cell growth at 10^-5 M after 48 hrs by sulforhodamine B assay; assay type: functional; details: read-out: Activity
[8] = Antiproliferative activity against human HOP92 cells assessed as growth inhibition after 48 hrs by sulforhodamine B assay; assay type: functional; details: HOP-92, 48 h
[9] = test system: M14; assay: Antiproliferative activity against human M14 cells assessed as cell growth at 10^-5 M after 48 hrs by sulforhodamine B assay; assay type: functional; details: M14, 48 h, read-out: Activity
[10] = test system: ACHN; assay: Antiproliferative activity against human ACHN cells assessed as cell growth at 10^-5 M after 48 hrs by sulforhodamine B assay; assay type: functional; details: read-out: Activity
[11] = test system: CCRF-CEM; assay: Antiproliferative activity against human CCRF-CEM cells assessed as cell growth at 10^-5 M after 48 hrs by sulforhodamine B assay; assay type: functional; details: read-out: Activity
[12] = target: Voltage-gated inwardly rectifying potassium channel KCNH2 (Homo sapiens, UniProt Q12809); assay: Inhibition of human ERG assessed as reduction in channel current by automated patch-clamp electrophysiology assay
[13] = Antiproliferative activity against human OVCAR4 cells assessed as cell growth at 10^-4 M after 48 hrs by sulforhodamine B assay; assay type: functional; details: OVCAR-4, 48 h, read-out: Activity
[14] = test system: SN12C; assay: Antiproliferative activity against human SN12C cells assessed as cell growth at 10^-4 M after 48 hrs by sulforhodamine B assay; assay type: functional; details: read-out: Activity
[15] = Antiproliferative activity against human PC3 cells assessed as cell growth at 10^-5 M after 48 hrs by sulforhodamine B assay; assay type: functional; details: PC-3, 48 h, read-out: Activity
[16] = test system: SK-MEL-28; assay: Antiproliferative activity against human SK-MEL-28 cells assessed as cell growth at 10^-5 M after 48 hrs by sulforhodamine B assay; assay type: functional; details: SK-MEL-28, 48 h, read-out: Activity
[17] = test system: A498; assay: Antiproliferative activity against human A498 cells assessed as cell growth at 10^-5 M after 48 hrs by sulforhodamine B assay; assay type: functional; details: A498, 48 h, read-out: Activity
[18] = Antiproliferative activity against human COLO205 cells assessed as cell growth at 10^-8 M after 48 hrs by sulforhodamine B assay; assay type: functional; details: COLO 205, 48 h, read-out: Activity
[19] = Antiproliferative activity against human SF539 cells assessed as cell growth at 10^-5 M after 48 hrs by sulforhodamine B assay; assay type: functional; details: SF-539, 48 h, read-out: Activity
[20] = Antiproliferative activity against human UACC62 cells assessed as cell growth at 10^-5 M after 48 hrs by sulforhodamine B assay; assay type: functional; details: UACC-62, 48 h, read-out: Activity
[21] = Antiproliferative activity against human UACC257 cells assessed as cell growth at 10^-8 M after 48 hrs by sulforhodamine B assay; assay type: functional; details: UACC-257, 48 h, read-out: Activity
[22] = test system: A549; assay: Antiproliferative activity against human A549/ATCC cells assessed as cell growth at 10^-8 M after 48 hrs by sulforhodamine B assay; assay type: functional; details: A549, 48 h, read-out: Activity
[23] = Antiproliferative activity against human RPMI8226 cells assessed as cell growth at 10^-5 M after 48 hrs by sulforhodamine B assay; assay type: functional; details: RPMI-8226, 48 h, read-out: Activity
[24] = Antiproliferative activity against human HOP92 cells assessed as cell growth at 10^-5 M after 48 hrs by sulforhodamine B assay; assay type: functional; details: HOP-92, 48 h, read-out: Activity
[25] = Antiproliferative activity against human HOP62 cells assessed as cell growth at 10^-5 M after 48 hrs by sulforhodamine B assay; assay type: functional; details: HOP-62, 48 h, read-out: Activity
[26] = Antiproliferative activity against human SNB19 cells assessed as cell growth at 10^-5 M after 48 hrs by sulforhodamine B assay; assay type: functional; details: SNB-19, 48 h, read-out: Activity
[27] = Antiproliferative activity against human OVCAR4 cells assessed as cell growth at 10^-5 M after 48 hrs by sulforhodamine B assay; assay type: functional; details: OVCAR-4, 48 h, read-out: Activity
[28] = Antiproliferative activity against human Caki1 cells assessed as cell growth at 10^-5 M after 48 hrs by sulforhodamine B assay; assay type: functional; details: CAKI-1, 48 h, read-out: Activity
[29] = test system: NCI-H322M; assay: Antiproliferative activity against human NCI-H322M cells assessed as cell growth at 10^-5 M after 48 hrs by sulforhodamine B assay; assay type: functional; details: read-out: Activity
[30] = test system: NCI-H23; assay: Antiproliferative activity against human NCI-H23 cells assessed as cell growth at 10^-5 M after 48 hrs by sulforhodamine B assay; assay type: functional; details: NCI-H23, 48 h, read-out: Activity
[31] = test system: K562; assay: Antiproliferative activity against human K562 cells assessed as cell growth at 10^-6 M after 48 hrs by sulforhodamine B assay; assay type: functional; details: K562, 48 h, read-out: Activity
[32] = Antiproliferative activity against human HOP62 cells assessed as cell growth at 10^-7 M after 48 hrs by sulforhodamine B assay; assay type: functional; details: HOP-62, 48 h, read-out: Activity
[33] = Antiproliferative activity against human UACC257 cells assessed as cell growth at 10^-5 M after 48 hrs by sulforhodamine B assay; assay type: functional; details: UACC-257, 48 h, read-out: Activity
[34] = test system: SK-MEL-5; assay: Antiproliferative activity against human SK-MEL-5 cells assessed as cell growth at 10^-5 M after 48 hrs by sulforhodamine B assay; assay type: functional; details: SK-MEL-5, 48 h, read-out: Activity
[35] = Antiproliferative activity against human HOP62 cells assessed as cell growth at 10^-8 M after 48 hrs by sulforhodamine B assay; assay type: functional; details: HOP-62, 48 h, read-out: Activity
[36] = test system: MDA-MB-435; assay: Antiproliferative activity against human MDA-MB-435 cells assessed as cell growth at 10^-5 M after 48 hrs by sulforhodamine B assay; assay type: functional; details: MDA-MB-435, 48 h, read-out: Activity
[37] = Antiproliferative activity against human DU145 cells assessed as cell growth at 10^-5 M after 48 hrs by sulforhodamine B assay; assay type: functional; details: DU-145, 48 h, read-out: Activity
[38] = test system: T47D; assay: Antiproliferative activity against human T47D cells assessed as cell growth at 10^-5 M after 48 hrs by sulforhodamine B assay; assay type: functional; details: read-out: Activity

Sequence of Voltage-gated inwardly rectifying potassium channel KCNH2 (Q12809 whole entry): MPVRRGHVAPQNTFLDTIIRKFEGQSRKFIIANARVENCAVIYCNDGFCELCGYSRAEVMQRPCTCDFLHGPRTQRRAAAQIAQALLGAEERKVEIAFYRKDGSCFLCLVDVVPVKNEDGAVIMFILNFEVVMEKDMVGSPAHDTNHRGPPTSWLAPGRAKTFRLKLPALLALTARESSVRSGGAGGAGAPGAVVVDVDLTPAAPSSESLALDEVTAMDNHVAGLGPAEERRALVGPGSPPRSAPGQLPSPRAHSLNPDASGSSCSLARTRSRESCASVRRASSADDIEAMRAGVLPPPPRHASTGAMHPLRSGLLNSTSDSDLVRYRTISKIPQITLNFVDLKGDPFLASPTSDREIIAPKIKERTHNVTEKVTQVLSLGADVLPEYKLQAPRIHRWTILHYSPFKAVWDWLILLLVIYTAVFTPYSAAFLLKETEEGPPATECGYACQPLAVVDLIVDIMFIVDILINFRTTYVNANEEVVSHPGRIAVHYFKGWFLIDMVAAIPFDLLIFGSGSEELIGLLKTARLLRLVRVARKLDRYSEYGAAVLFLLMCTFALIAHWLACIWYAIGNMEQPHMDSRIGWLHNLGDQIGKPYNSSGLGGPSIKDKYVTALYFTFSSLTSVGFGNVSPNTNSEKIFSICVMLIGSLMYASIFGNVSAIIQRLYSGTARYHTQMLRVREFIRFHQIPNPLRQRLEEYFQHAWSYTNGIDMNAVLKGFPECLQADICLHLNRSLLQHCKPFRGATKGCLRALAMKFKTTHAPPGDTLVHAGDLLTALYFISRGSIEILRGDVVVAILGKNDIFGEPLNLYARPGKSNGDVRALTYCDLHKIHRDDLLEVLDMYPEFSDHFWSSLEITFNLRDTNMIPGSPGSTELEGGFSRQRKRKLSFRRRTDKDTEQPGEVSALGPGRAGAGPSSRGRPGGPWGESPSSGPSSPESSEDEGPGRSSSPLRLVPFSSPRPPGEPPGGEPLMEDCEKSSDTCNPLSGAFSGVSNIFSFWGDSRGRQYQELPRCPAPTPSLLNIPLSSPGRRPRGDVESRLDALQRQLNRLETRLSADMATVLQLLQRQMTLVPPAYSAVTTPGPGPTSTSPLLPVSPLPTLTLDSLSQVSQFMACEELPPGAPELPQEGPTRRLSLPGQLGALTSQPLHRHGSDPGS

SMILES	growth at 10 µM [1] [%]	growth at 10 µM [2] [%]	growth at 10 µM [3] [%]	growth at 0.01 µM [4] [%]	growth at 10 µM [5] [%]	growth at 10 µM [6] [%]	growth at 10 µM [7] [%]	GI50 [8] [µM]	LC50 [8] [µM]	TGI [8] [µM]	growth at 10 µM [9] [%]	growth at 10 µM [10] [%]	growth at 10 µM [11] [%]	pIC50 [12]	growth at 100 µM [13] [%]	growth at 100 µM [14] [%]	growth at 10 µM [15] [%]	growth at 10 µM [16] [%]	growth at 10 µM [17] [%]	growth at 0.01 µM [18] [%]	also measured
CNC(=O)c1cc(Oc2ccc3nc(NC(=O)c4cc(C(F)(F)F)cc(C(F)(F)F)c4)sc3c2)ccn1	19	2	6	105	-19	-25	15	1.68	> 100	7.21	15	6	13	4.32	-13	-53	5	22	-35	99	growth at 10 µM [19]: 12%; growth at 10 µM [20]: 5%; growth at 0.01 µM [21]: 87%; growth at 0.01 µM [22]: 92%; growth at 10 µM [23]: 10%; growth at 10 µM [24]: -11%; growth at 10 µM [25]: 2%; growth at 10 µM [26]: 16%; growth at 10 µM [27]: 10%; growth at 10 µM [28]: 2%; growth at 10 µM [29]: 18%; growth at 10 µM [30]: 15%; growth at 1 µM [31]: 102%; growth at 0.1 µM [32]: 92%; growth at 10 µM [33]: -10%; growth at 10 µM [34]: -66%; growth at 0.01 µM [35]: 99%; growth at 10 µM [36]: 7%; growth at 10 µM [37]: 16%; growth at 10 µM [38]: -4%
CNC(=O)c1cc(Oc2ccc3nc(NC(=O)Nc4ccc(Cl)c(Cl)c4)sc3c2)ccn1	-19	5	-23	102	-30	-20	-43	2.66	18.8	5.39	-47	-30	76	< 4.00	-68	9	-53	-72	-25	102	growth at 10 µM [19]: -49%; growth at 10 µM [20]: -11%; growth at 0.01 µM [21]: 92%; growth at 0.01 µM [22]: 98%; growth at 10 µM [23]: 9%; growth at 10 µM [24]: -44%; growth at 10 µM [25]: -79%; growth at 10 µM [26]: -67%; growth at 10 µM [27]: -68%; growth at 10 µM [28]: -25%; growth at 10 µM [29]: -4%; growth at 10 µM [30]: 2%; growth at 1 µM [31]: 98%; growth at 0.1 µM [32]: 112%; growth at 10 µM [33]: -23%; growth at 10 µM [34]: -32%; growth at 0.01 µM [35]: 105%; growth at 10 µM [36]: -47%; growth at 10 µM [37]: -25%; growth at 10 µM [38]: -26%
CNC(=O)c1cc(Oc2ccc3nc(NC(=O)Nc4cc(C(F)(F)F)cc(C(F)(F)F)c4)sc3c2)ccn1	-70	-58	-34	101	-53	-64	-62	0.301	5.14	0.949	-74	-77	-16	< 4.00	-57	-60	-65	-75	-79	90	growth at 10 µM [19]: -78%; growth at 10 µM [20]: -77%; growth at 0.01 µM [21]: 102%; growth at 0.01 µM [22]: 104%; growth at 10 µM [23]: -37%; growth at 10 µM [24]: -69%; growth at 10 µM [25]: -72%; growth at 10 µM [26]: -34%; growth at 10 µM [27]: -64%; growth at 10 µM [28]: -77%; growth at 10 µM [29]: -57%; growth at 10 µM [30]: -59%; growth at 1 µM [31]: 44%; growth at 0.1 µM [32]: 91%; growth at 10 µM [33]: -82%; growth at 10 µM [34]: -76%; growth at 0.01 µM [35]: 85%; growth at 10 µM [36]: -69%; growth at 10 µM [37]: -69%; growth at 10 µM [38]: -56%
CNC(=O)c1cc(Oc2ccc3nc(NC(=O)Nc4ccc(Cl)c(C(F)(F)F)c4)sc3c2)ccn1	-9	20	-17	109	37	-38	-21	1.15	9.12	3.24	-29	-67	22	< 4.00	-15	12	-67	-68	4	98	growth at 10 µM [19]: -60%; growth at 10 µM [20]: -22%; growth at 0.01 µM [21]: 102%; growth at 0.01 µM [22]: 104%; growth at 10 µM [23]: -10%; growth at 10 µM [24]: -54%; growth at 10 µM [25]: -42%; growth at 10 µM [27]: -75%; growth at 10 µM [28]: -16%; growth at 10 µM [29]: -14%; growth at 10 µM [30]: -8%; growth at 1 µM [31]: 96%; growth at 0.1 µM [32]: 95%; growth at 10 µM [33]: 14%; growth at 10 µM [34]: -62%; growth at 0.01 µM [35]: 92%; growth at 10 µM [36]: -36%; growth at 10 µM [37]: -10%; growth at 10 µM [38]: -34%
